Earlier results on one compound are cited in patent US20090047357A1, “METHOD OF PRODUCING DRUG-CONTAINING WAX MATRIX PARTICLES, EXTRUDER TO BE USED IN THE METHOD AND SUSTAINED-RELEASE PREPARATION CONTAINING CILOSTAZOL” (OTSUKA PHARMACEUTICAL CO., LTD., priority 2005, published 2009).

The structures appear in SMILES notation.

Regarding `Cn1c(=O)c2[nH]cnc2n(C)c1=O` [theophylline], the water solubility result is listed as “about 0.6 w/v %”.
